Assay results published in PMC6642140, “Boosting NAD^+ with a small molecule that activates NAMPT” (Nature Communications, 2019).
Each block holds one molecule with its values, some of them ahead of it.

Assays:
Assay type in all cases: biochemical
[1] = biological target: T1, NAMPT (nicotinamide phosphoribosyltransferase) (Homo sapiens, UniProt P43490); test: NMN production LC-MS/MS assay with […] NAD+ (feedback inhibition)
T1 construct: recombinant, N-terminal His tag removed with thrombin

[2] = biological target: T1, NAMPT (nicotinamide phosphoribosyltransferase); test: LC-MS/MS of the reversible reaction; suppresses pHisNAMPT in western blot and blunts P3 production
[3] = biological target: T1, NAMPT (nicotinamide phosphoribosyltransferase); test: dose-dependent protein thermal shift and stimulation of NMN production
[4] = biological target: T1, NAMPT (nicotinamide phosphoribosyltransferase); test: NMN production fluorescence assay at […] compound (slight inhibition)
[5] = biological target: T1, NAMPT (nicotinamide phosphoribosyltransferase); test: spin desalting column with LC-MS detection of bound compound; EC50 from NMN production activation assay
From the text: spin desalting column with LC-MS detection of bound compound; EC50 from NMN production activation assay on NAMPT (nicotinamide phosphoribosyltransferase) | When NAMPT and SBI-797812 were mixed and applied to the column, SBI-797812 was detected in the column eluent

T1 sequence (P43490 whole entry): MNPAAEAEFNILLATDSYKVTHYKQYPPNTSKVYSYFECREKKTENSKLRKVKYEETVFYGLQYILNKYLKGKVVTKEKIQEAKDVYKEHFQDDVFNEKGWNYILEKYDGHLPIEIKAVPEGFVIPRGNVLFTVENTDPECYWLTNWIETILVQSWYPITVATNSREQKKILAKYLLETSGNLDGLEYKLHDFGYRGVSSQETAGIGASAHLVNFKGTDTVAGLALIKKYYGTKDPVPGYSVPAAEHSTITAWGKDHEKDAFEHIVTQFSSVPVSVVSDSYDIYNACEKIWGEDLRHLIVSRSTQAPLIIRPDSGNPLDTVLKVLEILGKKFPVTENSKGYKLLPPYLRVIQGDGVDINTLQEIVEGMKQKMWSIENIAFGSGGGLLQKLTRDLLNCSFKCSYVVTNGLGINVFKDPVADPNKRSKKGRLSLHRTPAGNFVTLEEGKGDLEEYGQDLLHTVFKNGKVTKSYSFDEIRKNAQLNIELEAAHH

Structure (SMILES): NC(=O)c1ccc[n+]([C@@H]2O[C@H](COP(=O)([O-])OP(=O)(O)OC[C@H]3O[C@@H](n4cnc5c(N)ncnc54)[C@H](O)[C@@H]3O)[C@@H](O)[C@H]2O)c1 [NAD^+]
NMN production LC-MS/MS assay with 250 μM NAD+ (feedback inhibition) [1]: SBI-797812 relieved NAMPT inhibition mediated by NAD^+ (Fig. 2e).

Structure (SMILES): NC(=O)c1ccc[n+]([C@@H]2O[C@H](COP(=O)([O-])O)[C@@H](O)[C@H]2O)c1 [NMN]
LC-MS/MS of the reversible reaction; suppresses pHisNAMPT in western blot and bl [2]: While the pHisNAMPT band was suppressed by NMN or PP, NAM or PRPP had no effect

Structure (SMILES): CCOC(=O)c1ccc(NC(=O)NCc2ccncc2)cc1 [SBI-136892]
dose-dependent protein thermal shift and stimulation of NMN production [3]: SBI-136892 (Fig. 1b), dose-dependently increased the NAMPT Tm (Supplementary Fig. 1a) and stimulated NAMPT-mediated NMN production

Structure (SMILES): O=C(NCc1ccccn1)Nc1ccc(S(=O)(=O)N2CC3CCC(C2)O3)cc1 [SBI-796950]
NMN production fluorescence assay at 2 μM compound (slight inhibition) [4]: The SBI-797812 isomer with the 2-pyridyl group, SBI-796950 (Fig. 1b), slightly inhibited NMN production (Fig. 1c).

EC50 [5]: 370 ± 60 nM
Structure (SMILES): O=C(NCc1ccncc1)Nc1ccc(S(=O)(=O)N2CC3CCC(C2)O3)cc1 [SBI-797812]
